One series has as its target T1, HBV core protein (UniProt P03146).
T1 construct: fused on or other part: BODIPY-FL maleimide label on the C-terminal Cys150
Briefly: Biochemical capsid assembly assay (fluorescence quenching). Also on record: species or system hepatitis B virus. The following applies: read-out: Assembly Activity (IC50); BODIPY-FL labelled core protein, 300 μM NaCl, read 6 min after start. In outline:
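Purified E. coli-expressed HBV core protein (aa 1-149 plus Cys150), BODIPY-FL maleimide-labelled, at 1.0-2.0 μM in 50 mM HEPES pH 7.5 with 0.5% DMSO was used. Compounds were tested at 8 concentrations (0.5-log dilutions from 100, 31.6 or 10 μM). Assembly was started with NaCl ([…]), and fluorescence quenching was read after 6 min (ex 477/em 525 nm). EC50 was determined by non-linear regression.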

In the next series the test system is HBV. Briefly: Determination of HBV DNA from the supernatants of HepAD38 cells (anti-HBV activity). It is filed as cell-based, hepatitis B virus. The following applies: Hepatitis B virus, 144 h; HBV DNA in HepAD38 supernatant, day 6, qPCR; read-out: Cell Activity (EC50). In short, it runs like this: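 HepAD38 cells, tetracycline withdrawn to induce HBV, treated with serial half-log compound dilutions; on day 6 HBV DNA purified from filtered supernatant and quantified by real-time PCR against HBV plasmid standards; EC50 from relative copy numbers by non-linear regression, three experiments in triplicate.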
In general terms: Real-time PCR tracks product formation cycle by cycle.

A short description of series [1]: Cell viability assay (AlamarBlue) in HepAD38 cells. The following applies: human. (Resazurin is reduced to fluorescent resorufin, in cell work by metabolically active cells.)

pEC50, pIC50: −log10 of the molar value. Some results are limits rather than exact numbers.

T1 sequence (P03146 whole entry, looked up, the tested form may be a part): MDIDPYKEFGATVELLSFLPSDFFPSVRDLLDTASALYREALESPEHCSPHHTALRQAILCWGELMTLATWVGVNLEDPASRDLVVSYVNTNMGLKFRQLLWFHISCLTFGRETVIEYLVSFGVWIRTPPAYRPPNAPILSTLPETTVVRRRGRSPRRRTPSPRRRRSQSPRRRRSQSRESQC

Turning to `O=C(c1cc2ccccc2[nH]1)N1CCc2[nH]nc(C(=O)N3CCC(F)(F)CC3)c2C1` [Example 190, 2-[3-(4,4-difluoropiperidine-1-carbonyl)-1H,4H,5H,6H,7H-pyrazolo[4,3-c]pyridine-5-carbonyl]-1H-indole], the pIC50 – broadly, the negative decadic logarithm of the IC50, by convention in mol/L – on HBV core protein is over 5.30. Further, in the series on HBV, the pEC50 (usually −log10 of the EC50, conventionally taken in molar units) is over 6.00. The CC50 (usually the concentration giving 50% cytotoxicity) at 6 days in series [1] was over 10 µM.

As for `CC(C)(C)OC(=O)N[C@@H]1CCN(C(=O)c2n[nH]c3c2CN(C(=O)c2cc4ccccc4[nH]2)CC3)C1` [Example 191, tert-butyl N-[(3R)-1-[5-(1H-indole-2-carbonyl)-1H,4H,5H,6H,7H-pyrazolo[4,3-c]pyridine-3-carbonyl]pyrrolidin-3-yl]carbamate], the pIC50 on HBV core protein was over 5.30. Further, in the series with HBV, the negative logarithm of the EC50 (pEC50) was 4.60 to 6.00. In series [1], this compound yielded a CC50 at 6 days of over 10 µM.

For the compound `CN(C(=O)c1n[nH]c2c1CN(C(=O)c1cc3ccccc3[nH]1)CC2)C1CCCOC1` (stereo not drawn) [Example 193, 5-(1H-indole-2-carbonyl)-N-methyl-N-(oxan-3-yl)-1H,4H,5H,6H,7H-pyrazolo[4,3-c]pyridine-3-carboxamide], at HBV core protein, the pIC50 was over 4.00. The pEC50 with HBV is 4.60 to 6.00. In series [1], this compound came in with a CC50 at 6 days of over 10 µM.

Regarding `CC(C)(C)OC(=O)N[C@H]1CCN(C(=O)c2n[nH]c3c2CN(C(=O)c2cc4ccccc4[nH]2)CC3)C1` [Example 194, tert-butyl N-[(3S)-1-[5-(1H-indole-2-carbonyl)-1H,4H,5H,6H,7H-pyrazolo[4,3-c]pyridine-3-carbonyl]pyrrolidin-3-yl]carbamate], the pIC50 at HBV core protein is over 4.00. In the series with HBV, the negative logarithm of the EC50 (pEC50) was 4.60 to 6.00. Further, the CC50 at 6 days in series [1] is over 10 µM.

Take `O=C(c1cc2ccccc2[nH]1)N1CCc2[nH]nc(C(=O)N3CCOCC34CC4)c2C1` [Example 195, 2-(3-{7-oxa-4-azaspiro[2.5]octane-4-carbonyl}-1H,4H,5H,6H,7H-pyrazolo[4,3-c]pyridine-5-carbonyl)-1H-indole]: the pIC50 on HBV core protein is 5.00 to 5.30. In addition, the negative-log EC50 (pEC50) in the series with HBV was over 6.00. The CC50 at 6 days in series [1] is over 10 µM.

With `CN(OCCO)C(=O)c1n[nH]c2c1CN(C(=O)c1cc3c(Cl)cccc3[nH]1)CC2` [Example 196, 5-(4-chloro-1H-indole-2-carbonyl)-N-(2-hydroxyethoxy)-N-methyl-1H,4H,5H,6H,7H-pyrazolo[4,3-c]pyridine-3-carboxamide], the negative-log IC50 (pIC50) on HBV core protein is over 5.30. Moreover, the pEC50 with HBV was over 6.00. This compound also yielded a CC50 at 6 days in series [1] of over 10 µM.

In the case of `Cc1cccc2[nH]c(C(=O)N3CCc4[nH]nc(C(=O)N(C)OCCO)c4C3)cc12` [Example 197, N-(2-hydroxyethoxy)-N-methyl-5-(4-methyl-1H-indole-2-carbonyl)-1H,4H,5H,6H,7H-pyrazolo[4,3-c]pyridine-3-carboxamide], the pIC50 at HBV core protein was over 5.30. Also, in the series on HBV, the pEC50 was over 6.00. In series [1], this compound displayed a 50% cytotoxic concentration (CC50) at 6 days of over 10 µM.

Take `CN(OCCO)C(=O)c1n[nH]c2c1CN(C(=O)c1cc3ccccc3[nH]1)CC2` [Example 198, N-(2-hydroxyethoxy)-5-(1H-indole-2-carbonyl)-N-methyl-1H,4H,5H,6H,7H-pyrazolo[4,3-c]pyridine-3-carboxamide]: the pIC50 on HBV core protein was over 5.30. In addition, in the series on HBV, the pEC50 is over 6.00. This compound also showed a 50% cytotoxic concentration (CC50) at 6 days in series [1] of over 10 µM.

Regarding `CN(C(=O)c1n[nH]c2c1CN(C(=O)c1cc3ccccc3[nH]1)CC2)C1CCOCC1` [Example 199, 5-(1H-indole-2-carbonyl)-N-methyl-N-(oxan-4-yl)-1H,4H,5H,6H,7H-pyrazolo[4,3-c]pyridine-3-carboxamide], the pIC50 at HBV core protein was over 4.00. Also, in the series with HBV, the pEC50 was 4.60 to 6.00. This compound came in with a CC50 at 6 days in series [1] of over 10 µM.

Turning to `[2H]C([2H])([2H])N(C(=O)c1n[nH]c2c1CN(C(=O)c1cc3ccccc3[nH]1)CC2)C1(COC)CC1` [Example 201, 5-(1H-indole-2-carbonyl)-N-[1-(methoxymethyl)cyclopropyl]-N-(2H3)methyl-1H,4H,5H,6H,7H-pyrazolo[4,3-c]pyridine-3-carboxamide], on HBV core protein, the pIC50 was over 5.30. The negative logarithm of the EC50 (pEC50) with HBV is over 6.00. In series [1], this compound gave a CC50 at 6 days of over 10 µM.

As to `COCC1(NC(=O)c2n[nH]c3c2CN(C(=O)c2cc4ccccc4[nH]2)CC3)CC1` [Example 202, 5-(1H-indole-2-carbonyl)-N-[1-(methoxymethyl)cyclopropyl]-1H,4H,5H,6H,7H-pyrazolo[4,3-c]pyridine-3-carboxamide], the negative logarithm of the IC50 (pIC50) at HBV core protein was over 5.30. Further, in the series with HBV, the pEC50 was over 6.00. In series [1], this compound showed a CC50 at 6 days of over 10 µM.

For the compound `O=C(c1cc2ccccc2[nH]1)N1CCc2[nH]nc(OC3CCCC3)c2C1` [Example 203, 2-[3-(cyclopentyloxy)-1H,4H,5H,6H,7H-pyrazolo[4,3-c]pyridine-5-carbonyl]-1H-indole], on HBV core protein, the pIC50 is 5.00 to 5.30. The pEC50 in the series with HBV was over 6.00. The CC50 at 6 days in series [1] is over 10 µM.

For `COCC1(N(C)C(=O)c2n[nH]c3c2CN(C(=O)c2cc4cc(F)ccc4[nH]2)CC3)CC1` [Example 204, 5-(5-fluoro-1H-indole-2-carbonyl)-N-[1-(methoxymethyl)cyclopropyl]-N-methyl-1H,4H,5H,6H,7H-pyrazolo[4,3-c]pyridine-3-carboxamide], at HBV core protein, the pIC50 is over 5.30. Further, in the series with HBV, the negative-log EC50 (pEC50) is over 6.00. The CC50 at 6 days in series [1] was over 10 µM.

Consider `COCC1(N(C)C(=O)c2n[nH]c3c2CN(C(=O)c2cc4c(C(C)(F)F)cc(F)cc4[nH]2)CC3)CC1` [Example 205, 5-[4-(1,1-difluoroethyl)-6-fluoro-1H-indole-2-carbonyl]-N-[1-(methoxymethyl)cyclopropyl]-N-methyl-1H,4H,5H,6H,7H-pyrazolo[4,3-c]pyridine-3-carboxamide], for which the negative-log IC50 (pIC50) at HBV core protein is over 5.30. In addition, the pEC50 in the series on HBV was over 6.00. In series [1], this compound returned a 50% cytotoxic concentration (CC50) at 6 days of over 10 µM.

With `[2H]C([2H])([2H])OCC1(N(C)C(=O)c2n[nH]c3c2CN(C(=O)c2cc4ccccc4[nH]2)CC3)CC1` [Example 206, 5-(1H-indole-2-carbonyl)-N-{1-[(2H3)methoxymethyl]cyclopropyl}-N-methyl-1H,4H,5H,6H,7H-pyrazolo[4,3-c]pyridine-3-carboxamide], the pIC50 at HBV core protein is over 5.30. Also, the negative logarithm of the EC50 (pEC50) in the series with HBV was over 6.00. Further, in series [1], the CC50 at 6 days was over 10 µM.

Take `CCOCC1(N(C)C(=O)c2n[nH]c3c2CN(C(=O)c2cc4ccccc4[nH]2)CC3)CC1` [Example 207, N-[1-(ethoxymethyl)cyclopropyl]-5-(1H-indole-2-carbonyl)-N-methyl-1H,4H,5H,6H,7H-pyrazolo[4,3-c]pyridine-3-carboxamide]: at HBV core protein, the pIC50 was over 5.30. Besides, in the series on HBV, the pEC50 is over 6.00. In series [1], this compound registered a 50% cytotoxic concentration (CC50) at 6 days of over 10 µM.

`CC(C)OCC1(N(C)C(=O)c2n[nH]c3c2CN(C(=O)c2cc4ccccc4[nH]2)CC3)CC1` [Example 208, 5-(1H-indole-2-carbonyl)-N-methyl-N-{1-[(propan-2-yloxy)methyl]cyclopropyl}-1H,4H,5H,6H,7H-pyrazolo[4,3-c]pyridine-3-carboxamide]: on HBV core protein, the negative-log IC50 (pIC50) is over 5.30. For the same compound, the negative logarithm of the EC50 (pEC50) in the series with HBV was over 6.00. Also, the CC50 at 6 days in series [1] was over 10 µM.

Take `CS(=O)(=O)c1n[nH]c2c1CN(C(=O)c1cc3ccccc3[nH]1)CC2` [Example 211, 2-{3-methanesulfonyl-1H,4H,5H,6H,7H-pyrazolo[4,3-c]pyridine-5-carbonyl}-1H-indole]: on HBV core protein, the pIC50 was over 5.30. In addition, in the series on HBV, the pEC50 is over 6.00. The compound further showed a CC50 at 6 days in series [1] of over 10 µM.

Source of the values: US11236087B2, “Highly active pyrazolo-piperidine substituted indole-2-carboxamides active against the hepatitis B virus (HBV)” (AiCuris GmbH & Co. KG, priority 2017, dated 2022).
